# In ChEMBL document CHEMBL1153245, “A profile of the in vitro anti-tumor activity of imidazolium-based ionic liquids” (2010):
# Tests used:
# Type in all cases: functional
# ACHN = assay: Anticancer activity against human ACHN cells assessed cell growth at 10 uM after 48 hrs by sulforhodamine B assay relative to control
# TK-10 [1] = assay: Anticancer activity against human TK10 cells assessed cell growth at 10 uM after 48 hrs by sulforhodamine B assay relative to control
# MDA-MB-231 [2] = assay: Anticancer activity against human MDA-MB-231 cells assessed cell growth at 10 uM after 48 hrs by sulforhodamine B assay relative to control
# SR = assay: Anticancer activity against human SR cells after 48 hrs by sulforhodamine B assay; conditions: Homo sapiens, SR, 48 h; for CC50: read-out: LC50 (the source's name)
# A549 = assay: Anticancer activity against human A549 cells after 48 hrs by sulforhodamine B assay; conditions: Homo sapiens, A549, 48 h
# HOP-62 [3] = assay: Anticancer activity against human HOP62 cells after 48 hrs by sulforhodamine B assay; conditions: Homo sapiens, HOP-62, 48 h; for CC50: read-out: LC50 (the source's name)
# HOP-92 [4] = assay: Anticancer activity against human HOP92 cells after 48 hrs by sulforhodamine B assay; conditions: Homo sapiens, HOP-92, 48 h; for CC50: read-out: LC50 (the source's name)
# NCI-H322M = assay: Anticancer activity against human NCI-H322M cells after 48 hrs by sulforhodamine B assay; conditions: Homo sapiens, NCI-H322M, 48 h
# NCI-H522 = assay: Anticancer activity against human NCI-H522 cells after 48 hrs by sulforhodamine B assay; conditions: Homo sapiens, NCI-H522, 48 h
# COLO 205 = assay: Anticancer activity against human COLO205 cells after 48 hrs by sulforhodamine B assay; conditions: Homo sapiens, COLO 205, 48 h; for CC50: read-out: LC50 (the source's name)
# HCT-116 = assay: Anticancer activity against human HCT116 cells after 48 hrs by sulforhodamine B assay; conditions: Homo sapiens, HCT-116, 48 h; for CC50: read-out: LC50 (the source's name)
# HCT-15 [5] = assay: Anticancer activity against human HCT15 cells after 48 hrs by sulforhodamine B assay; conditions: Homo sapiens, HCT-15, 48 h; for CC50: read-out: LC50 (the source's name)
# KM12 = assay: Anticancer activity against human KM12 cells after 48 hrs by sulforhodamine B assay; conditions: Homo sapiens, KM12, 48 h; for CC50: read-out: LC50 (the source's name)
# LOX IMVI = assay: Anticancer activity against human LOXIMVI cells after 48 hrs by sulforhodamine B assay; conditions: Homo sapiens, LOX IMVI, 48 h; for CC50: read-out: LC50 (the source's name)
# K562 = assay: Anticancer activity against human K562 cells assessed cell growth at 10 uM after 48 hrs by sulforhodamine B assay relative to control
# HOP-62 [6] = assay: Anticancer activity against human HOP62 cells assessed cell growth at 10 uM after 48 hrs by sulforhodamine B assay relative to control
# HOP-92 [7] = assay: Anticancer activity against human HOP92 cells assessed cell growth at 10 uM after 48 hrs by sulforhodamine B assay relative to control
# NCI-H226 = assay: Anticancer activity against human NCI-H226 cells assessed cell growth at 10 uM after 48 hrs by sulforhodamine B assay relative to control
# NCI-H460 = assay: Anticancer activity against human NCI-H460 cells assessed cell growth at 10 uM after 48 hrs by sulforhodamine B assay relative to control
# HCT-15 [8] = assay: Anticancer activity against human HCT15 cells assessed cell growth at 10 uM after 48 hrs by sulforhodamine B assay relative to control
# SF-268 = assay: Anticancer activity against human SF268 cells assessed cell growth at 10 uM after 48 hrs by sulforhodamine B assay relative to control
# SK-MEL-2 = assay: Anticancer activity against human SK-MEL-2 cells assessed cell growth at 10 uM after 48 hrs by sulforhodamine B assay relative to control
# SK-MEL-5 = assay: Anticancer activity against human SK-MEL-5 cells assessed cell growth at 10 uM after 48 hrs by sulforhodamine B assay relative to control
# UACC-257 [9] = assay: Anticancer activity against human UACC257 cells assessed cell growth at 10 uM after 48 hrs by sulforhodamine B assay relative to control
# OVCAR-5 [10] = assay: Anticancer activity against human OVCAR5 cells assessed cell growth at 10 uM after 48 hrs by sulforhodamine B assay relative to control
# M14 = assay: Anticancer activity against human M14 cells after 48 hrs by sulforhodamine B assay; conditions: Homo sapiens, M14, 48 h
# UACC-257 [11] = assay: Anticancer activity against human UACC257 cells after 48 hrs by sulforhodamine B assay; conditions: Homo sapiens, UACC-257, 48 h
# UACC-62 = assay: Anticancer activity against human UACC62 cells after 48 hrs by sulforhodamine B assay; conditions: Homo sapiens, UACC-62, 48 h
# OVCAR-3 = assay: Anticancer activity against human OVCAR-3 cells after 48 hrs by sulforhodamine B assay; conditions: Homo sapiens, OVCAR-3, 48 h
# OVCAR-4 = assay: Anticancer activity against human OVCAR4 cells after 48 hrs by sulforhodamine B assay; conditions: Homo sapiens, OVCAR-4, 48 h; for CC50: read-out: LC50 (the source's name)
# OVCAR-5 [12] = assay: Anticancer activity against human OVCAR5 cells after 48 hrs by sulforhodamine B assay; conditions: Homo sapiens, OVCAR-5, 48 h; for CC50: read-out: LC50 (the source's name)
# OVCAR-8 = assay: Anticancer activity against human OVCAR8 cells after 48 hrs by sulforhodamine B assay; conditions: Homo sapiens, OVCAR-8, 48 h
# 786-0 = assay: Anticancer activity against human 786-0 cells after 48 hrs by sulforhodamine B assay; conditions: Homo sapiens, 786-0, 48 h
# CAKI-1 = assay: Anticancer activity against human Caki1 cells after 48 hrs by sulforhodamine B assay; conditions: Homo sapiens, CAKI-1, 48 h
# TK-10 [13] = assay: Anticancer activity against human TK10 cells after 48 hrs by sulforhodamine B assay; conditions: Homo sapiens, TK-10, 48 h
# UO-31 = assay: Anticancer activity against human UO31 cells after 48 hrs by sulforhodamine B assay; conditions: Homo sapiens, UO-31, 48 h
# MCF7 = assay: Anticancer activity against human MCF7 cells after 48 hrs by sulforhodamine B assay; conditions: Homo sapiens, MCF7, 48 h
# NCI/ADR-RES = assay: Anticancer activity against human NCI/ADR-RES cells after 48 hrs by sulforhodamine B assay; conditions: Homo sapiens, NCI/ADR-RES, 48 h
# MDA-MB-231 [14] = assay: Anticancer activity against human MDA-MB-231 cells after 48 hrs by sulforhodamine B assay; conditions: Homo sapiens, MDA-MB-231, 48 h; for CC50: read-out: LC50 (the source's name)
# BT-549 = assay: Anticancer activity against human BT549 cells after 48 hrs by sulforhodamine B assay; conditions: Homo sapiens, BT-549, 48 h; for CC50: read-out: LC50 (the source's name)
# MDA-MB-468 = assay: Anticancer activity against human MDA-MB-468 cells after 48 hrs by sulforhodamine B assay; conditions: Homo sapiens, MDA-MB-468, 48 h
smiles,measurement,setting,value
CCCCCCCCCCCCCCCC[n+]1ccn(C)c1.[Cl-],Activity,ACHN,-0.6%
same,Activity,TK-10 [1],-80.37%
same,Activity,MDA-MB-231 [2],-93.87%
same,GI50,SR,0.1 µM
same,CC50,SR,4.38 µM
same,GI50,A549,1.07 µM
same,GI50,HOP-62 [3],1.17 µM
same,CC50,HOP-62 [3],6.89 µM
same,GI50,HOP-92 [4],1.02 µM
same,CC50,HOP-92 [4],7.3 µM
same,GI50,NCI-H322M,1.74 µM
same,GI50,NCI-H522,1.01 µM
same,GI50,COLO 205,0.343 µM
same,CC50,COLO 205,> 100 µM
same,GI50,HCT-116,0.349 µM
same,CC50,HCT-116,6.21 µM
same,GI50,HCT-15 [5],1 µM
same,CC50,HCT-15 [5],4.65 µM
same,GI50,KM12,0.357 µM
same,CC50,KM12,3.57 µM
same,GI50,LOX IMVI,0.334 µM
same,CC50,LOX IMVI,3.78 µM
same,Activity,K562,72.56%
same,Activity,HOP-62 [6],-82.71%
same,Activity,HOP-92 [7],-80.2%
same,Activity,NCI-H226,-60.54%
same,Activity,NCI-H460,-87.94%
same,Activity,HCT-15 [8],9.85%
same,Activity,SF-268,-22.98%
same,Activity,SK-MEL-2,-64.47%
same,Activity,SK-MEL-5,-95.2%
same,Activity,UACC-257 [9],-61.13%
same,Activity,OVCAR-5 [10],-67.51%
same,GI50,M14,0.343 µM
same,GI50,UACC-257 [11],1.12 µM
same,GI50,UACC-62,1.04 µM
same,GI50,OVCAR-3,0.414 µM
same,GI50,OVCAR-4,0.594 µM
same,CC50,OVCAR-4,7.2 µM
same,GI50,OVCAR-5 [12],0.912 µM
same,CC50,OVCAR-5 [12],7.24 µM
same,GI50,OVCAR-8,0.865 µM
same,GI50,786-0,1.18 µM
same,GI50,CAKI-1,0.385 µM
same,GI50,TK-10 [13],0.295 µM
same,GI50,UO-31,1.1 µM
same,GI50,MCF7,0.431 µM
same,GI50,NCI/ADR-RES,2.1 µM
same,GI50,MDA-MB-231 [14],0.616 µM
same,CC50,MDA-MB-231 [14],4.55 µM
same,GI50,BT-549,1.04 µM
same,CC50,BT-549,5.92 µM
same,GI50,MDA-MB-468,0.092 µM
CCCCCCCCCCCCCCCCCC[n+]1ccn(C)c1.FC(F)(F)C(F)(F)[P-](F)(F)(F)(C(F)(F)C(F)(F)F)C(F)(F)C(F)(F)F,Activity,ACHN,-53.6%
same,Activity,TK-10 [1],-60.38%
same,Activity,MDA-MB-231 [2],-73.64%
same,GI50,SR,3.37 µM
same,CC50,SR,> 100 µM
same,GI50,A549,0.458 µM
same,LC50 (concentration killing 50% of cells),A549,> 100 µM
same,GI50,HOP-62 [3],0.39 µM
same,CC50,HOP-62 [3],6.09 µM
same,GI50,HOP-92 [4],0.211 µM
same,CC50,HOP-92 [4],22 µM
same,GI50,NCI-H322M,0.406 µM
same,LC50,NCI-H322M,5.54 µM
same,GI50,NCI-H522,0.285 µM
same,LC50,NCI-H522,4.32 µM
same,GI50,COLO 205,0.196 µM
same,CC50,COLO 205,0.778 µM
same,GI50,HCT-116,0.294 µM
same,CC50,HCT-116,> 100 µM
same,GI50,HCT-15 [5],0.309 µM
same,CC50,HCT-15 [5],4.41 µM
same,GI50,KM12,0.214 µM
same,CC50,KM12,0.929 µM
same,GI50,LOX IMVI,0.164 µM
same,CC50,LOX IMVI,0.678 µM
same,Activity,K562,26.87%
same,Activity,HOP-62 [6],-79.75%
same,Activity,HOP-92 [7],-39.5%
same,Activity,NCI-H226,-58.27%
same,Activity,NCI-H460,-53.73%
same,Activity,HCT-15 [8],-23.91%
same,Activity,SF-268,-47.08%
same,Activity,SK-MEL-2,-54.7%
same,Activity,SK-MEL-5,-77.4%
same,Activity,UACC-257 [9],-53.5%
same,Activity,OVCAR-5 [10],-56.76%
same,GI50,M14,0.402 µM
same,LC50 (50% lethal concentration),M14,> 100 µM
same,GI50,UACC-257 [11],0.523 µM
same,LC50,UACC-257 [11],9.71 µM
same,GI50,UACC-62,0.5 µM
same,LC50,UACC-62,4.66 µM
same,GI50,OVCAR-3,0.316 µM
same,LC50 (50% lethal concentration),OVCAR-3,3.79 µM
same,GI50,OVCAR-4,0.32 µM
same,CC50,OVCAR-4,> 100 µM
same,GI50,OVCAR-5 [12],0.489 µM
same,CC50,OVCAR-5 [12],32.7 µM
same,GI50,OVCAR-8,0.491 µM
same,LC50,OVCAR-8,> 100 µM
same,GI50,786-0,0.425 µM
same,LC50 (50% lethal concentration),786-0,5.36 µM
same,GI50,CAKI-1,0.293 µM
same,LC50,CAKI-1,7.46 µM
same,GI50,TK-10 [13],0.31 µM
same,LC50,TK-10 [13],4.12 µM
same,GI50,UO-31,0.365 µM
same,LC50,UO-31,5.31 µM
same,GI50,MCF7,0.309 µM
same,LC50 (50% cell kill),MCF7,4.69 µM
same,GI50,NCI/ADR-RES,0.412 µM
same,LC50,NCI/ADR-RES,12.5 µM
same,GI50,MDA-MB-231 [14],0.378 µM
same,CC50,MDA-MB-231 [14],4.82 µM
same,GI50,BT-549,0.334 µM
same,CC50,BT-549,4.2 µM
same,GI50,MDA-MB-468,0.173 µM
same,LC50,MDA-MB-468,> 100 µM
